The test system of one test is Spleen. As to the kind of experiment: Induction of heme alkylation in Plasmodium vinckei petteri-infected Swiss albino mice (Mus musculus) spleen assessed as covalent heme-drug adduct formation at 100 mg/kg, perorally administered as single dose measured by liquid chromatography-mass spectrometry method. Format: functional, organism-based. More on the design: dose 100 mg/kg.

The test system of the next test is Kidney. The test can be described thus: Induction of heme alkylation in Plasmodium vinckei petteri-infected Swiss albino mice (Mus musculus) kidney assessed as heme-drug adduct at 100 mg/kg, perorally administered as single dose measured by liquid chromatography-mass spectrometry method. Format: functional, organism-based. The arrangement: dose 100 mg/kg.

Each structure is given as a SMILES string. Active and inactive are the calls of the source. The rule behind the calls is not given here.

For the compound `CC(C)C1=C[C@H]2OC3(CCC(NCCNc4ccnc5cc(Cl)ccc45)CC3)OO[C@@]2(C)CC1` (some centres not stated), the result in the test on Spleen was Active. Also, the result with Kidney was inactive.

The values are drawn from ChEMBL document CHEMBL1275485, “The antimalarial trioxaquine DU1301 alkylates heme in malaria-infected mice” (Antimicrob Agents Chemother, 2008).
